Reference: the NIST ThermoML archive (doi:10.1016/j.jct.2013.05.031)

Conditions: for surface tension liquid-gas: Capillary rise; for viscosity / mass density: 101.33 kPa, Liquid; for viscosity: Capillary tube (Ostwald / Ubbelohde) method; for mass density: Pycnometric method

CCCCCCCC[N+](CC)(CC)CC.O=S(=O)([N-]S(=O)(=O)C(F)(F)F)C(F)(F)F [triethyloctylammonium bis[(trifluoromethyl)sulfonyl]imide]
Conditions	mass density [kg/m3]	surface tension liquid-gas [mN/m]	viscosity [mPa·s]
298 K	1251.2	33.1	221.4
303 K	1247.2	32.8	163.9
308 K	1242.9	32.3	124.7
313 K	1239.4	31.8	96.76
318 K	1235.2	31.4	76.47
323 K	1231.3	31	60.52
328 K	1227.5	30.6	48.63
333 K	1223.2	30.1	39.85
338 K	1219	29.7	33.2
343 K	1216	29.3	28.23
348 K	1212.9	28.9	23.8
353 K	1207.8	28.6	20.36
358 K	1203.5	28.1	17.83
363 K	1200.2	27.7	15.55
368 K	1196	27.3	13.5
373 K	1192.3	26.9	12.05

CCCCCCCCCCCC[N+](CC)(CC)CC.O=S(=O)([N-]S(=O)(=O)C(F)(F)F)C(F)(F)F
Conditions	mass density [kg/m3]	surface tension liquid-gas [mN/m]	viscosity [mPa·s]
298 K	1191.1	31.8	311.8
303 K	1187.1	31.3	227.6
308 K	1183.1	30.9	167.7
313 K	1179.4	30.3	137.8
318 K	1175.7	29.9	98.82
323 K	1171.6	29.5	78.71
328 K	1167.9	29.1	62.52
333 K	1164.2	28.5	49.82
338 K	1160.7	28.2	41.48
343 K	1157.2	27.7	34.69
348 K	1153.3	27.2	29.44
353 K	1149.5	26.8	25.13
358 K	1145.5	26.4	21.3
363 K	1141.4	26	18.31
368 K	1137.6	25.5	16.51
373 K	1133.7	25.2	14.2

CCCCC[N+](CC)(CC)CC.O=S(=O)([N-]S(=O)(=O)C(F)(F)F)C(F)(F)F [triethylpentylammonium bis(trifluoromethylsulfonyl)imide]
Conditions	mass density [kg/m3]	surface tension liquid-gas [mN/m]	viscosity [mPa·s]
298 K	1321.5	35.7	161.6
303 K	1317.4	35.4	121.4
308 K	1313.2	35	92.11
313 K	1308.9	34.7	71.86
318 K	1304.9	34.3	57.52
323 K	1301	34	46.74
328 K	1296.6	33.6	37.78
333 K	1293.1	33.3	31.43
338 K	1289.1	32.9	26.57
343 K	1284.7	32.6	22.47
348 K	1280.9	32.2	19.27
353 K	1277.3	31.8	16.71
358 K	1272.9	31.5	14.79
363 K	1268.6	31.1	12.87
368 K	1265.1	30.7	11.5
373 K	1260.7	30.4	10.17

CCCCCC[N+](CC)(CC)CC.O=S(=O)([N-]S(=O)(=O)C(F)(F)F)C(F)(F)F [triethylhexylammonium bis((trifluoromethyl)sulfonyl)imide]
Conditions	mass density [kg/m3]	surface tension liquid-gas [mN/m]	viscosity [mPa·s]
298 K	1291.4	34.1	186.6
303 K	1287.4	33.7	137.9
308 K	1283.4	33.3	105.1
313 K	1279.5	32.9	81.64
318 K	1275.2	32.5	65.32
323 K	1271.3	32.1	52.03
328 K	1267.1	31.7	42.34
333 K	1262.5	31.3	35.41
338 K	1258.5	30.9	28.94
343 K	1254.5	30.5	24.77
348 K	1251.3	30.1	20.96
353 K	1247.3	29.7	18.03
358 K	1243.3	29.3	15.83
363 K	1238.4	28.9	13.9
368 K	1234.9	28.5	12.25
373 K	1231.1	28.2	10.86
